Data published in US12187742B2 (XRAD Therapeutics, Inc., priority 2018, dated 2025).
Where a name gives a salt, the structure may show the parent alone.

Assays:
ATM = ATM (Homo sapiens (Human), UniProt Q13315); assay: ATM in Cell Western Assay (pKAP1 in etoposide-treated MCF-7 cells); type: cell-based; conditions: MCF-7 cells, etoposide 100 μM, 1 hr, pKAP1 readout
How it was run: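 Cells received compounds in a 10-dose, 3-fold series from a 1 μM final top concentration, then 100 μM etoposide, for 1 hr at 37° C. They were then fixed with paraformaldehyde and permeabilized with 0.1% Triton X-100. After immunostaining, plates were scanned on an infrared imager.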

DNA-PK = DNA-PK (Homo sapiens (Human), UniProt P78527); assay: DNA-PK Enzyme-Linked Immunosorbent Assay (phosphorylation of GST-p53 (1-101) peptide); type: biochemical; conditions: ELISA, ATP 20 μM
Method: Assay of Compounds ATM and DNA-PK Inhibition
remove wash solution, turn plate upside down onto a thin paper towel and centrifuge at 1000 rpm for 1 min to absorb all wash buffer. Clean the bottom of plate with moist lint free paper. Scan plate immediately using ODYSSEY CLx (LI-COR) for the best results. DNA-PK Enzyme-Linked Immunosorbent Assay:
On day one, coat 96-well plate (ThermoFisher. Cat #: 442404) with GST-p53 (1-101) peptide (purified by Pharmaron, BCS department) by diluting 3 μg of GST-p53 each well with 0.1 M Na2CO3/NaHCO3, pH 9.6. Incubate the plate overnight at 4° C. The second day, remove coating buffer, wash 2× with PBST (1×PBS containing 0.1% Tween-20). Then add DNA-PK enzyme solution (Invitrogen, #PR9107A; the final DNA-PK concentration is 0.1 μg/mL), series dilution compounds (the final top concentration is 100 nM, 3 fold series dilution, with total 10 doses) and ATP solution (the final ATP concentration is 20 μM) to the 96-well plate. Incubate the plate at 25° C. for 1 hour. Then wash 3× with PBST (1×PBS containing 0.1% Tween-20). Block the plate with PBST+ 1% BSA at 4° C. overnight. The third day, wash 4× with PBST (1×PBS containing 0.1% Tween-20). Then add Phospho-p53 primary antibody (cell signaling Technology, #9286, Phospho-p53 (Ser15) (16G8) Mouse mAb) (1/1000) to each well. Seal with plate and incubate the plate for 1 h at 37° C. Wash 4× with PBST (1×PBS containing 0.1% Tween-20), add 100 μL of HRP-linked secondary antibody (Cell signaling Technology, #7076, Anti-mouse IgG, HRP-linked Antibody) (1/1000) to each well. Seal with tape and incubate the plate for 30 min at 37° C. Wash 4× with PBST (1×PBS containing 0.1% Tween-20), add 100 μL of TMB (Cell signaling Technology, #7004) substrate to each well. Seal with tape and incubate the plate for 10 min at 37° C. Then add 100 μL of Stop solution (Cell signaling Technology, #7002) to each well. Read the plate at 450 nm to detect absorption.

ATM, sequence (Q13315 whole entry): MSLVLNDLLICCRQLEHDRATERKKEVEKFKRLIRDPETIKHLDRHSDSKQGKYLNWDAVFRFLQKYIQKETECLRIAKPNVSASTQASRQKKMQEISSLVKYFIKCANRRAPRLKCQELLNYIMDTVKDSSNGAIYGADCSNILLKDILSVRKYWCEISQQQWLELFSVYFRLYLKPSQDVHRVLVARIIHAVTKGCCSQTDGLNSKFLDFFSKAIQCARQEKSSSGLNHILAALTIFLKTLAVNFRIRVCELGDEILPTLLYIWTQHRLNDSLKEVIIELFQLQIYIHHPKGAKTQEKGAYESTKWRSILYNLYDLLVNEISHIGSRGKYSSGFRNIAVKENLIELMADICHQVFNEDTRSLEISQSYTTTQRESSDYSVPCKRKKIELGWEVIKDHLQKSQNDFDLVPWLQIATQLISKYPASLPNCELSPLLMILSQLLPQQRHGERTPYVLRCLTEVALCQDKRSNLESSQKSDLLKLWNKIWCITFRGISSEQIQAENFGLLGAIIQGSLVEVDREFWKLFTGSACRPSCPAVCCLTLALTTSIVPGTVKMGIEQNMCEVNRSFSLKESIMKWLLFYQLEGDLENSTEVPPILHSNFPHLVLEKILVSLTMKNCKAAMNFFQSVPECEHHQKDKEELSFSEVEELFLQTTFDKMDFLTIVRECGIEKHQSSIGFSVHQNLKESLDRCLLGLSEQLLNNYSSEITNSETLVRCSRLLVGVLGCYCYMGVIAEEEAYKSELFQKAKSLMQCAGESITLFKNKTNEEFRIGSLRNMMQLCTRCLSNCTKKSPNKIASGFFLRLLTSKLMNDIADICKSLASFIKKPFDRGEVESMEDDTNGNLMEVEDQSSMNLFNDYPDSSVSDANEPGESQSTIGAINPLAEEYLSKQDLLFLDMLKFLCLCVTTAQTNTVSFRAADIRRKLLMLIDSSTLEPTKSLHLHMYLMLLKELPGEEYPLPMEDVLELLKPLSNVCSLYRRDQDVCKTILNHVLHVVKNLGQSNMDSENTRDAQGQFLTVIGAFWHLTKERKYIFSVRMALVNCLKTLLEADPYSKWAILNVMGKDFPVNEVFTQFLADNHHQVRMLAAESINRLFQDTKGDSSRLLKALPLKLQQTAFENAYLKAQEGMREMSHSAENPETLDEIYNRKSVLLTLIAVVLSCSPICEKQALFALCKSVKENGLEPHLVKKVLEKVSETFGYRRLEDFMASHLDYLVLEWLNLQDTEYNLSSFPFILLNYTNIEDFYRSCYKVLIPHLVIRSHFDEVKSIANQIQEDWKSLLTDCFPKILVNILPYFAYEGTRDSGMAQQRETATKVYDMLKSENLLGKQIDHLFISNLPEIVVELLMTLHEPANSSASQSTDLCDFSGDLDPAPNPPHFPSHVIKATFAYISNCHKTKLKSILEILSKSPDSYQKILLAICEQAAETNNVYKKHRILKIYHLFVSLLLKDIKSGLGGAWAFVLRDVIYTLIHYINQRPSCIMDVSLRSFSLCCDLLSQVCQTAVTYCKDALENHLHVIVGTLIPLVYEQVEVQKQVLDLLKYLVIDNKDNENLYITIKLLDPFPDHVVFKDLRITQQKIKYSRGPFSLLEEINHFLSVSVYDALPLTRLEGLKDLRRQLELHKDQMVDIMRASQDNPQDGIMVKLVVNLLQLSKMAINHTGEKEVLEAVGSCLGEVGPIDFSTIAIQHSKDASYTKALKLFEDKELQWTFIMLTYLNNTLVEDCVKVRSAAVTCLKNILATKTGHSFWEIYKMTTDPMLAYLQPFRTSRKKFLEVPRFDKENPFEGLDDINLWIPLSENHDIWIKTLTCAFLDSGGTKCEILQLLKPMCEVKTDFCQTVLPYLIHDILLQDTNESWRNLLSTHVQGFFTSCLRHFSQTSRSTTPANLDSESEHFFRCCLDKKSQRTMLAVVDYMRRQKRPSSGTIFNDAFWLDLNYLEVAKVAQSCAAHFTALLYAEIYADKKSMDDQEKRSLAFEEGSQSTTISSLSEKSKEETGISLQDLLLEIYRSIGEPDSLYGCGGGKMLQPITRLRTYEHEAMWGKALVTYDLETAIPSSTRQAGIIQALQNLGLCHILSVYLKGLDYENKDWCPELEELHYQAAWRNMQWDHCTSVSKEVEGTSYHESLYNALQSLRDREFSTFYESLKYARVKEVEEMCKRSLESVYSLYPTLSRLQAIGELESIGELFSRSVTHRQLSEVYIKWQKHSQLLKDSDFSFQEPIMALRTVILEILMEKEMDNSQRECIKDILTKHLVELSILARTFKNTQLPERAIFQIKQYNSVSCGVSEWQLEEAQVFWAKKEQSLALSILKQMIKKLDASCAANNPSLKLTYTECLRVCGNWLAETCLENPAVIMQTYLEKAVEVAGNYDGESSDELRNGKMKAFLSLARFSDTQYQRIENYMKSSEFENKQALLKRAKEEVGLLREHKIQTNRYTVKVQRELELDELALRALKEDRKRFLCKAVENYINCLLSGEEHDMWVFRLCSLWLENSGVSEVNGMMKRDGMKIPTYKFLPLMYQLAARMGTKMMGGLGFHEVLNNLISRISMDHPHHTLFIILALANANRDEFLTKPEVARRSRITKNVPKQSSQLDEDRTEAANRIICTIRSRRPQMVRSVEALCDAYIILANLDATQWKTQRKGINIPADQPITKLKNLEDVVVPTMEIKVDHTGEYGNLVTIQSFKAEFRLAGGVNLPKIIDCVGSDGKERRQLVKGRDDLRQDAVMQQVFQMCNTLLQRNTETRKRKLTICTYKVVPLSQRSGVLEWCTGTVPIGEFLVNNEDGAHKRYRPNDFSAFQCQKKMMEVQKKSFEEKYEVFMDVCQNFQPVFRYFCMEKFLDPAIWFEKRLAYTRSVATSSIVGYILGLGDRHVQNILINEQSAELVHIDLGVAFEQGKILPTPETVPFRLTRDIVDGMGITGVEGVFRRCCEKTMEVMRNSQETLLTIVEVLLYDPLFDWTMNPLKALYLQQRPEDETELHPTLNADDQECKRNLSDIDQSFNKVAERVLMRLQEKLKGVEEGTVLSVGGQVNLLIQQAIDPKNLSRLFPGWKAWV

| IC50 (ATM) [nM] | IC50 (DNA-PK) [nM] | Structure (SMILES) |
| --- | --- | --- |
| 0.5 to 1 | > 100 | COc1cc(-c2ccc3ncc4c(c3c2)C2(CC2)C(=O)N4C)cnc1OCCCN(C)C [Example 54, 8′-(6-(3-(Dimethylamino)propoxy)-5-methoxypyridin-3-yl)-3′-methylspiro[cyclopropane-1,1′-pyrrolo[2,3-c]quinolin]-2′(3′-H)-one] |
| 1 to 100 | 1 to 100 | Cc1cc(-c2ccc3ncc4c(c3c2)C2(CC2)C(=O)N4C)cnc1OCCCN(C)C [Example 57, 8′-(6-(3-(Dimethylamino)propoxy)-5-methylpyridin-3-yl)-3′-methylspiro[cyclopropane-1,1′-pyrrolo[2,3-c]quinolin]-2′(3′-H)-one] |
| < 0.5 | < 0.5 | CN1C(=O)C2(CC2)c2c1cnc1ccc(-c3cnc(OCCCN4CCCC4)c(NS(=O)(=O)c4ccccc4)c3)cc21 [Example 58, N-(5-(3′-Methyl-2′-oxo-2′,3′-dihydrospiro[cyclopropane-1,1′-pyrrolo[2,3-c]quinolin]-8′-yl)-2-(3-(pyrrolidin-1-yl)propoxy)pyridin-3-yl)benzenesulfonamide] |
| 1 to 100 | 1 to 100 | CN(C)CCCOc1ncc(-c2ccc3ncc4c(c3c2)C2(CC2)C(=O)N4C)cc1OCc1ccccc1 [Example 59, 8′-(5-(Benzyloxy)-6-(3-(dimethylamino)propoxy)pyridin-3-yl)-3methylspiro [cycloproane-1,1′-pyrrolo [2,3-c]quinolin]-2′(3′-)-one] |
| 1 to 100 | 1 to 100 | CCS(=O)(=O)Nc1cc(-c2ccc3ncc4c(c3c2)C2(CC2)C(=O)N4C)cnc1OCCCN(C)C [Example 61, N-(2-(3-(Dimethylamino)propoxy)-5-(3′-methyl-2′-oxo-2′,3′-dihydrospiro [cyclopropane-1,1′-pyrrolo[2,3-c]quinolin]-8′-yl)pyridin-3-ylethanesulfonamide hydrochloride] |
| 1 to 100 | 1 to 100 | CN1C(=O)C2(CC2)c2c1cnc1ccc(-c3cnc4ncccc4c3)cc21 [Example 62, 3′-Methyl-8′-(1,8-naphthyridin-3-yl)spiro[cyclopropane-1,1′-pyrrolo[2,3-c]quinolin]-2′(3′-H)-one] |
| 0.5 to 1 | 1 to 100 | CN(C)CCCOc1ccc(-c2ccc3ncc4c(c3c2)C2(CC2)C(=O)N4C)cc1NS(=O)(=O)c1ccccc1 [Example 63, N-(2-(3-(Dimethylamino)propoxy)-5-(3′-methyl-2′-oxo-2′,3′-dihydrospiro[cyclopropane-1,1′-pyrrolo[2,3-c]quinolin]-8′-yl)phenyl)benzenesulfonamide] |
| 1 to 100 | < 0.5 | CN(C)CCCOc1ncc(-c2ccc3ncc4c(c3c2)C2(CC2)C(=O)N4C)cc1NS(C)(=O)=O [Example 64, N-(2-(3-(Dimethylamino)propoxy)-5-(3′-methyl-2′-oxo-2′,3′-dihydrospiro[cyclopropane-1,1′-pyrrolo[2,3-c]quinolin]-8′-yl)pyridin-3-yl) methanesulfonamide] |
| 1 to 100 | 1 to 100 | CN(C)CCCOc1ncc(-c2cc3c4c(cnc3cc2F)N(C)C(=O)C42CC2)cc1NS(=O)(=O)c1ccccc1 [Example 65, N-(2-(3-(Dimethylamino)propoxy)-5-(7′-fluoro-3′-methyl-2′-oxo-2′,3′-dihydrospiro [cyclopropane-1,1′-pyrrolo[2,3-c]quinolin]-8′-yl)pyridin-3-yl) benzenesulfonamide] |

| Structure (SMILES) | IC50 (ATM) [nM] | IC50 (DNA-PK) [nM] |
| --- | --- | --- |
| CN(C)CCCCOc1ncc(-c2ccc3ncc4c(c3c2)C2(CC2)C(=O)N4C)cc1NS(=O)(=O)C1CC1 [Example 56, N-(2-(4-(Dimethylamino)butoxy)-5-(3′-methyl-2′-oxo-2′,3′-dihydrospiro [cyclopropane-1,1′-pyrrolo[2,3-c]quinolin]-8′-yl)pyridin-3-yl)cyclopropanesulfonamide] | 1 to 100 | 1 to 100 |
